Results from ChEMBL document CHEMBL5727906, “Adenosine A3 receptor modulators” (2020).

Tests used:
Adenosine receptor A2b = target: T1, Adenosine receptor A2b (Homo sapiens, UniProt P29275); experiment: Competition Radioligand Binding Assay: A2B Adenosine Receptor: The binding assay for adenosine A2B receptor subtype was carried out on human recombinant source (HEK-293 cells) and [3H]DPCPX as radioligand.
T1 sequence (P29275 whole entry): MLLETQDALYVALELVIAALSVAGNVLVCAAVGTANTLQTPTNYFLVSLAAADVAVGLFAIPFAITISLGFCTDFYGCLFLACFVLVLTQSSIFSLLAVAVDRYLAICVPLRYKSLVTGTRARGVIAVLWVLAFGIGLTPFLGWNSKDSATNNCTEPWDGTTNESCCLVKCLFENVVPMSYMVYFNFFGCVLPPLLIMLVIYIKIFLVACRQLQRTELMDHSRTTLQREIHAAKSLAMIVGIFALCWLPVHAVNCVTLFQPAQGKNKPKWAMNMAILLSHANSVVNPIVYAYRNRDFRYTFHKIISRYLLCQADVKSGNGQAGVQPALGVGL

Adenosine receptor A1 = target: T2, Adenosine receptor A1 (Homo sapiens, UniProt P30542); experiment: Competition Radioligand Binding Assay: Adenosine A1 Receptor: Competition assays were carried out by incubation of human recombinant membranes of adenosine receptors from hA1 receptors transfected to CHO cells, [3H] DPCPX as radioligand, buffer (HEPES 20 mM (pH=7.4), 10 mM MgCl2, 100 mM NaCl, 2 U/mL of deaminase adenosine and non-labelled ligand in a total volume of 0.2 mL for 90 min at 25° C. R-PIA was used to determinate non-specific binding. Filter over Schleicher & Schuell GF/52 (pre-soaked 0.5% polyethylenimine) in a Brandel cell harvester. Unbound radioligand was removed with HEPES 30 mM (3×250 μl), NaCl (100 mM) and MgCl2 (10 mM).
T2 sequence (P30542 whole entry): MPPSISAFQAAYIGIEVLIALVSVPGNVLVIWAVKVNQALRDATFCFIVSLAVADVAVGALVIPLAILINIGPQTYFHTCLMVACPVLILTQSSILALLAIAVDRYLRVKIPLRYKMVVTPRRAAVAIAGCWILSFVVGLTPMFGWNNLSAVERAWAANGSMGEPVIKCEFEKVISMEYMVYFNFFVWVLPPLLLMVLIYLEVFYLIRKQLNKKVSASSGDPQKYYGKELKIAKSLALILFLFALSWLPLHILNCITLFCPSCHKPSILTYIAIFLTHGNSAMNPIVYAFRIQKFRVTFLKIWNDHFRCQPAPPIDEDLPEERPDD

Adenosine receptor A3 = target: T3, Adenosine receptor A3 (Homo sapiens, UniProt P0DMS8); experiment: Competition Radioligand Binding Assay: A3 Adenosine Receptor:Competitive assays were carried out by incubation of membranes from human A3 receptors transfected to CHO cells, [3H]-NECA, buffer (20 mM HEPES (pH 7.4), 100 mM NaCl, 10 mM MgCl2, 2 units/ml adenosine deaminase), and unlabelled ligand in a total volume of 0.2 ml for 60 min at 25° C. R-PIA was used to determine nonspecific binding. It was filtered over Schleicher & Schuell GF/52 (presoaked with 0.5% polyethyleneimine) in a Brandel cell harvester. The unbound radioligand was removed with 3×250 μl of 20 mM HEPES (pH 7.4), 100 mM NaCl, 10 mM MgCl2.
T3 sequence (P0DMS8 whole entry): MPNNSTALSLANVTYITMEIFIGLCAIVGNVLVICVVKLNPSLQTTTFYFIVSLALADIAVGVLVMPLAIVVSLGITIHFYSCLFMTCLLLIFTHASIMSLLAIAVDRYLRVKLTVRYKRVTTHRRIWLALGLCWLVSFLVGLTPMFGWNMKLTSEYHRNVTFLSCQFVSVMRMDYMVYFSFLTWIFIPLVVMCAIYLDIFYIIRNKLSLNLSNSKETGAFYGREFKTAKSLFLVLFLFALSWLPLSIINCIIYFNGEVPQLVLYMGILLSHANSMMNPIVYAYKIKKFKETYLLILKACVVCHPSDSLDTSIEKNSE

Adenosine receptor A2a = Adenosine receptor A2a (Homo sapiens, UniProt P29274); experiment: Competition Radioligand Binding Assay: A2A Adenosine Receptor: Competitive assays were carried out by incubation of membranes from human A2A receptors transfected to HeLa cells, [3H]-ZM241385, buffer (Tris-HCl 50 mM (pH=7.4), 10 mM MgCl2, EDTA 1 mM and 2 units/ml adenosine deaminase), and unlabelled ligand in a total volume of 0.2 ml for 60 min at 25° C. NECA was used to determine nonspecific binding. It was filtered over Schleicher & Schuell GF/52 (presoaked with 0.5% polyethyleneimine) in a Brandel cell harvester. The unbound radioligand was removed with 3×250 μl of 20 mM Tris-HCl 50 mM (pH=7.4), 10 mM MgCl2, EDTA 1 mM.
Adenosine receptor A2a, sequence (P29274 whole entry): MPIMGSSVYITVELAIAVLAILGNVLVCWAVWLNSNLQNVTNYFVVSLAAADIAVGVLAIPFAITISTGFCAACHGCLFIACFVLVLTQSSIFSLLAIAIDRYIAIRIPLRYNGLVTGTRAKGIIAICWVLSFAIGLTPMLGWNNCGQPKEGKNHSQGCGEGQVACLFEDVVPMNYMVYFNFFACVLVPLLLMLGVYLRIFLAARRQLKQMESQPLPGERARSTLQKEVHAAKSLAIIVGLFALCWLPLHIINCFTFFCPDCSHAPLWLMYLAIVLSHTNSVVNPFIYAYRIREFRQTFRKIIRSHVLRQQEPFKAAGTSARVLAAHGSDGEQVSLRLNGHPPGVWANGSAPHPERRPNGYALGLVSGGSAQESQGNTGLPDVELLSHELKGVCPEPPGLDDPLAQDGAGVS

SMILES: COc1ccc(-c2nc(NC(=O)c3ccc(N4CCC(C(=O)O)CC4)nc3)sc2C#N)cc1
- Ki (Adenosine receptor A2b): > 1000 nM
- Ki (Adenosine receptor A1): > 1000 nM
- Ki (Adenosine receptor A3): 47.6 nM
- Ki (Adenosine receptor A2a): > 1000 nM
